Key:
Assay in all cases: AlphaScreen Assay
Ephrin type-A receptor 2 = Ephrin type-A receptor 2 (Homo sapiens, UniProt P29317)
Experimental: (§1) In AlphaScreen, when the donor and acceptor beads are close in proximity, a series of photochemical events will give rise to a fluorescent signal upon light activation. Here we use biotinylated poly-(Glu, Tyr) 4:1 as the kinase substrate, streptavidin-coated donor beads and anti-phosphortyrosine antibody PY100-coated acceptor beads. […] Compounds, ATP, biotinylated poly-(Glu, Tyr) and kinases are mixed in a volume of 20 μL for 1 hr at ambient temperature using Greiner 384-well white clear bottom medium binding plates. Then 10 uL solution containing 15-30 mg/mL AlphaScreen beads, 75 mM Hepes, pH 7.4, 300 mM NaCl, 120 mM EDTA, 0.3% BSA and 0.03% Tween-20 is added to each well. After 2-16 hr incubation of the beads, plates are read in a Perkin Elmer AlphaQuest reader (available from PerkinElmer Life and Analytical Sciences, Inc., of Boston Mass.).

[1] = target: Receptor tyrosine-protein kinase erbB-2 (Homo sapiens, UniProt P04626)
Experimental: as §1

Ephrin type-B receptor 4 = target: T1, Ephrin type-B receptor 4 (Homo sapiens, UniProt P54760)
T1 sequence (P54760 whole entry): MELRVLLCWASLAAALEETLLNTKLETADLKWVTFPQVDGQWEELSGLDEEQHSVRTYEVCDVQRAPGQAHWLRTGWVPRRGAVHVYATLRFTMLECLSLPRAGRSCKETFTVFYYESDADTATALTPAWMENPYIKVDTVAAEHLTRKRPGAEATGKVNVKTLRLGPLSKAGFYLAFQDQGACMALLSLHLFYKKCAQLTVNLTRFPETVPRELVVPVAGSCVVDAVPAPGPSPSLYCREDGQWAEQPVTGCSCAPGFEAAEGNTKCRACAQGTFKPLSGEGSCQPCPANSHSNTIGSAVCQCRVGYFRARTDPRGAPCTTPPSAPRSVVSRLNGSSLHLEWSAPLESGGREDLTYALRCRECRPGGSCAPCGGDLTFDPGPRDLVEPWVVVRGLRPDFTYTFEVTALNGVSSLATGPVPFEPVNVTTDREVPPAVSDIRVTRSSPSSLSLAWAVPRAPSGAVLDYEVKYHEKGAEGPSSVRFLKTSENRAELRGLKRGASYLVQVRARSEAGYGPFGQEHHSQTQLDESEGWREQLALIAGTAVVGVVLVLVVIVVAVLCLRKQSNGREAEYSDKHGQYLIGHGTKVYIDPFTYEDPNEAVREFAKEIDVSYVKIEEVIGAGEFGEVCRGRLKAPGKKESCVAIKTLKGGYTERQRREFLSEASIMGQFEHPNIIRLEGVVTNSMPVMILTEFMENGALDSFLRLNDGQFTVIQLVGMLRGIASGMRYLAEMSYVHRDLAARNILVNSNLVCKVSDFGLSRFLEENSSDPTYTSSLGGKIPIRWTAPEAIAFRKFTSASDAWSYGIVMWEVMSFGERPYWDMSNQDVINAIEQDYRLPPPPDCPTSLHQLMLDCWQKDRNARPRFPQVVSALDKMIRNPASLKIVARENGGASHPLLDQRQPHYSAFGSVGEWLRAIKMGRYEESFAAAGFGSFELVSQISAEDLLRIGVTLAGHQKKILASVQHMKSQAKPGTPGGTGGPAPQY
Experimental: as §1

[2] = target: Vascular endothelial growth factor receptor 2 (Homo sapiens, UniProt P35968)
Chain of Vascular endothelial growth factor receptor 2 (P35968 whole entry): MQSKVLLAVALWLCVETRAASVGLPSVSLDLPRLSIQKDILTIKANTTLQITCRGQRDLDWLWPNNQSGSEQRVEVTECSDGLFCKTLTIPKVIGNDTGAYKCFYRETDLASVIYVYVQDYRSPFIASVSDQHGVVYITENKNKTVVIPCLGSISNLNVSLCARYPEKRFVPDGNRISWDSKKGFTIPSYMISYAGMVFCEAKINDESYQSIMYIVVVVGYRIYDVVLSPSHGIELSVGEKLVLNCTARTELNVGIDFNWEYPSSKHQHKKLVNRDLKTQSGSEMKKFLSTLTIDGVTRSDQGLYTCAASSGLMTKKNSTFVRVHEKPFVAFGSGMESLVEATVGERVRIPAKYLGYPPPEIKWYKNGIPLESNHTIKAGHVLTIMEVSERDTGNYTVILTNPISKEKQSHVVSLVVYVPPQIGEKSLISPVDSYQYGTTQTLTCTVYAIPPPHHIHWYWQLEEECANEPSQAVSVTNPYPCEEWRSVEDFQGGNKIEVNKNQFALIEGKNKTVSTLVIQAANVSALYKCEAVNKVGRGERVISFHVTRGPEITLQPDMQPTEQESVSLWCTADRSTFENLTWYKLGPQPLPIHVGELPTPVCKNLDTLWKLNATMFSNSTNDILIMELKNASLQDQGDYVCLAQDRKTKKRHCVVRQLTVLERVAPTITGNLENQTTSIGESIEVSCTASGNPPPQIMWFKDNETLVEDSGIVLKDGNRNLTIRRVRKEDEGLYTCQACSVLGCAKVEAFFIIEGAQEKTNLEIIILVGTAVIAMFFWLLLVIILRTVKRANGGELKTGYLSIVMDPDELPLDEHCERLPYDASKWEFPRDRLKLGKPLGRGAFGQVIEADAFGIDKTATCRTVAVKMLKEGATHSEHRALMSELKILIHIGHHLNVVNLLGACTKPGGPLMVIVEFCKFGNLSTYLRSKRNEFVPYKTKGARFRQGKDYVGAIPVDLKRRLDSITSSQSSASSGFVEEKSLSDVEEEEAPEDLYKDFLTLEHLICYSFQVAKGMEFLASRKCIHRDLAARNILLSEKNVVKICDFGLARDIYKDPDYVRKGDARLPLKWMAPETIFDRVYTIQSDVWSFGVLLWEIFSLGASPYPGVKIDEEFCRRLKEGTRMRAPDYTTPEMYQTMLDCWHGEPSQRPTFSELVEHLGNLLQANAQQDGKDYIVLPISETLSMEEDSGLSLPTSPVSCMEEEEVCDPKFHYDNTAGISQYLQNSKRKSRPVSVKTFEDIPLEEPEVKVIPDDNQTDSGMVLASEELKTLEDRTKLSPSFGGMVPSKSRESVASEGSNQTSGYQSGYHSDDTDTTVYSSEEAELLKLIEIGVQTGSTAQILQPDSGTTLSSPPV
Experimental: as §1

Chain of Ephrin type-A receptor 2 (P29317 whole entry): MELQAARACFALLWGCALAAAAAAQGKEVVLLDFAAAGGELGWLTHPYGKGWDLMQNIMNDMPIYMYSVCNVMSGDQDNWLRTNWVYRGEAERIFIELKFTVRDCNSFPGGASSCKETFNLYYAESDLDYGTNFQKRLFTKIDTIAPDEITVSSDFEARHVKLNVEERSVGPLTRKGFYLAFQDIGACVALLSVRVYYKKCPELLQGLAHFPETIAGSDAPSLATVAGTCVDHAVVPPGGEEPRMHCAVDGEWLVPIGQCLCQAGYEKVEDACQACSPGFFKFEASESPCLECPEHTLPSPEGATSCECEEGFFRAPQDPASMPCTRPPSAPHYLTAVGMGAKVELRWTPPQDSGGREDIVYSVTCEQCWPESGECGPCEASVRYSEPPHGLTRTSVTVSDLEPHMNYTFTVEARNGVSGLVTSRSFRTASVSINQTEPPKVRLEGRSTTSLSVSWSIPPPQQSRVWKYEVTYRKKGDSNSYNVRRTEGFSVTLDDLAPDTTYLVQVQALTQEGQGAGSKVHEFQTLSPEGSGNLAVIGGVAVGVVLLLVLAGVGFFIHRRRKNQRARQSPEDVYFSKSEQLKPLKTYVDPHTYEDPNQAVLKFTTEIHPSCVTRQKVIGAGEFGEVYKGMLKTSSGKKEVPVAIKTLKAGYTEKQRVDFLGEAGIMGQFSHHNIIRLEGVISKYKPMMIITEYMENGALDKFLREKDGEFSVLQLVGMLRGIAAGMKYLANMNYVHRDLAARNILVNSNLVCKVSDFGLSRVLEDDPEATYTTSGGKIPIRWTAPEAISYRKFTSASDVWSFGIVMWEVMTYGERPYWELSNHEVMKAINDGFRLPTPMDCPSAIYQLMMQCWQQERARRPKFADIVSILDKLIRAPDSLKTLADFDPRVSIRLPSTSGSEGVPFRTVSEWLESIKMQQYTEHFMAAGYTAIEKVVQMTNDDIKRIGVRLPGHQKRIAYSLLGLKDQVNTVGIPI
Chain of Receptor tyrosine-protein kinase erbB-2 (P04626 whole entry): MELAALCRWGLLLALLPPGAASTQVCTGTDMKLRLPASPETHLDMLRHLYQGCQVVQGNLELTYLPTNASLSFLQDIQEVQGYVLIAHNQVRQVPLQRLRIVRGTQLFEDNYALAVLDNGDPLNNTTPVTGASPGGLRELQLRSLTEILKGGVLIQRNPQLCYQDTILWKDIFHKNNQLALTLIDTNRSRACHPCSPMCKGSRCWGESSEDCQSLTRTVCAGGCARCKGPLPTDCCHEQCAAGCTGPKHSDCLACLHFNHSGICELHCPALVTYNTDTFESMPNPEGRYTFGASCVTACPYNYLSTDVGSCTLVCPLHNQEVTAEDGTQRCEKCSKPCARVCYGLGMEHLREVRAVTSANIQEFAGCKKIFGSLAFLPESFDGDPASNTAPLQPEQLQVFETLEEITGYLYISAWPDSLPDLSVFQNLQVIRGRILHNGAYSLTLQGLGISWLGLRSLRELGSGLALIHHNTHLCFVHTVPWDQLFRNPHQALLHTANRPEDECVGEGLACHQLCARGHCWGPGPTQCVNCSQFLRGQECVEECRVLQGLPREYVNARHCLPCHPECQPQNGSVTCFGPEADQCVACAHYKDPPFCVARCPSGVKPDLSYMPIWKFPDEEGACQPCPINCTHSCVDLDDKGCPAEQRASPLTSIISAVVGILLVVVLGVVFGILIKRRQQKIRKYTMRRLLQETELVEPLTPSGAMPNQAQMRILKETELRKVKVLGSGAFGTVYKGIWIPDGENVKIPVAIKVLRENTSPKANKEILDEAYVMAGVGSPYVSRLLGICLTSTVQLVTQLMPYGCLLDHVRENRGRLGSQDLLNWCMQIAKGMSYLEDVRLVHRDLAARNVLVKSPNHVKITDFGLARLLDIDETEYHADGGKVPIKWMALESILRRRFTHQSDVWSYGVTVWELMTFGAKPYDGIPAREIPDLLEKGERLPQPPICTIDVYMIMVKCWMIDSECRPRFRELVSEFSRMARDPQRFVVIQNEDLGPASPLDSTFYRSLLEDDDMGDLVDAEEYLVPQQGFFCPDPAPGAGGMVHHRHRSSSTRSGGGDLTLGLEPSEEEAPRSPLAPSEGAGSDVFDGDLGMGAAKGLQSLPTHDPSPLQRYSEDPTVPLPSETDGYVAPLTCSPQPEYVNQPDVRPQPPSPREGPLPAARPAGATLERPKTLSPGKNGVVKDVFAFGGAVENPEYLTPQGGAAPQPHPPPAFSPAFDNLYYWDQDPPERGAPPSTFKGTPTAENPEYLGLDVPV

| Compound | IC50 (Ephrin type-A receptor 2) | IC50 [1] | IC50 (Ephrin type-B receptor 4) | IC50 [2] |
| --- | --- | --- | --- | --- |
| COc1cc2c(Nc3ccc(Cl)c(Cl)c3)ncnc2cc1OCC1CN(C(=O)OC(C)(C)C)CCO1 (configuration not stated) [US9796704, Entry 148] | in the range around 525 nM | in the range around 525 nM | – | – |
| COc1cc2c(Nc3ccc(Cl)c(Cl)c3)ncnc2cc1OCc1noc(C(C)(C)C)n1 [US9796704, Entry 157] | in the range around 525 nM | – | in the range around 525 nM | – |
| COc1cc2c(Nc3ccc(Cl)cc3F)ncnc2cc1O[C@@H]1CO[C@@H]2[C@H]1OC[C@H]2F [US9796704, Entry 109] | in the range around 525 nM | – | in the range around 525 nM | – |
| COc1cc2c(Nc3ccc(Cl)c(Cl)c3)ncnc2cc1OCc1c(F)cccc1F [US9796704, Entry 233] | in the range around 525 nM | in the range around 10500 nM | – | in the range around 525 nM |
| COc1cc2c(Nc3ccc(Cl)c(Cl)c3F)ncnc2cc1O[C@@H]1CO[C@@H]2[C@H]1OC[C@H]2F [US9796704, Entry 97] | in the range around 525 nM | in the range around 525 nM | – | – |
| COc1cc2c(Nc3ccc(Br)c(Cl)c3F)ncnc2cc1OC[C@@H]1C[C@@H]2CN(C(C)C)C[C@@H]2C1 [US9796704, Entry 2] | – | – | < 50 nM | […] |
| COc1cc2c(Nc3cc(C(F)(F)F)ccc3Cl)ncnc2cc1O[C@@H]1CO[C@@H]2[C@H]1OC[C@H]2F [US9796704, Entry 122] | in the range around 525 nM | – | in the range around 525 nM | – |
| COc1cc2c(Nc3ccc(Cl)c(Cl)c3)ncnc2cc1OCC1CN(CC2CC2)CCCO1 (configuration not stated) [US9796704, Entry 259] | in the range around 10500 nM | in the range around 10500 nM | – | in the range around 10500 nM |
| COc1cc2c(Nc3c(F)cc(F)cc3Br)ncnc2cc1O[C@@H]1CO[C@@H]2[C@H]1OC[C@H]2F [US9796704, Entry 120] | in the range around 525 nM | – | in the range around 525 nM | – |
| COc1cc2c(Nc3ccc(Cl)c(Cl)c3)ncnc2cc1OC1C[C@@H]2CN(C)C[C@@H]2C1 (some centres not stated) [US9796704, Entry 59] | – | – | < 50 nM | – |
| COc1cc2c(Nc3ccc(Cl)c(Cl)c3)ncnc2cc1OCc1noc(-c2cccc(C(F)(F)F)c2)n1 [US9796704, Entry 166] | in the range around 525 nM | – | in the range around 525 nM | – |
| COc1cc2c(Nc3ccc(F)c(Cl)c3F)ncnc2cc1OC[C@H]1CN2CCOCC2CO1 (some centres not stated) [US9796704, Entry 21] | – | – | < 50 nM | < 50 nM |
| COc1cc2c(Nc3ccc(Cl)c(Cl)c3)ncnc2cc1OCc1ccncc1 [US9796704, Entry 172] | in the range around 525 nM | in the range around 525 nM | – | in the range around 525 nM |
| COc1cc2c(Nc3cc(Cl)c(Cl)cc3F)ncnc2cc1OC[C@@H]1CN2CCC[C@H]2CO1 [US9796704, Entry 40] | in the range around 525 nM | in the range around 10500 nM | – | in the range around 525 nM |
| COc1cc2c(Nc3ccc(Cl)cc3Cl)ncnc2cc1O[C@@H]1CO[C@@H]2[C@H]1OC[C@H]2F [US9796704, Entry 117] | in the range around 525 nM | in the range around 525 nM | – | in the range around 525 nM |
| COc1cc2c(Nc3ccc(Cl)c(Cl)c3)ncnc2cc1OCc1cccnc1 [US9796704, Entry 179] | – | – | in the range around 525 nM | in the range around 525 nM |
| COc1cc2c(Nc3ccc(F)c(Cl)c3F)ncnc2cc1OC[C@@H]1CN2CCOCC2CO1 (some centres not stated) [US9796704, Entry 24] | – | – | in the range around 10500 nM | – |
| COc1cc2c(Nc3ccc(Br)c(Cl)c3F)ncnc2cc1OC[C@@H]1C[C@@H]2CN(C(C)=O)C[C@@H]2C1 [US9796704, Entry 3] | – | – | < 50 nM | – |
| CCCN1CCCOC(COc2cc3ncnc(Nc4ccc(Cl)c(Cl)c4)c3cc2OC)C1 (configuration not stated) [US9796704, Entry 258] | in the range around 10500 nM | in the range around 10500 nM | – | in the range around 10500 nM |
| COc1cc2c(Nc3cc(Cl)c(Br)cc3F)ncnc2cc1OC[C@@H]1CN2CCOCC2CO1 (some centres not stated) [US9796704, Entry 28] | < 50 nM | – | in the range around 525 nM | – |

| Compound | IC50 (Ephrin type-A receptor 2) | IC50 [1] | IC50 (Ephrin type-B receptor 4) | IC50 [2] |
| --- | --- | --- | --- | --- |
| COc1cc2c(Nc3cc(Cl)c(Cl)cc3F)ncnc2cc1OC[C@H]1CN2CCOCC2CO1 (some centres not stated) [US9796704, Entry 19] | – | – | < 50 nM | < 50 nM |
| COc1cc2c(Nc3c(F)cccc3F)ncnc2cc1O[C@@H]1CO[C@@H]2[C@H]1OC[C@H]2F [US9796704, Entry 87] | in the range around 525 nM | – | in the range around 525 nM | – |
| COc1cc2c(Nc3ccc(Cl)c(Cl)c3)ncnc2cc1OCC1CN(C2CCCC2)CCO1 (configuration not stated) [US9796704, Entry 269] | in the range around 10500 nM | in the range around 10500 nM | – | in the range around 525 nM |
| COc1cc2c(Nc3ccc(F)cc3F)ncnc2cc1O[C@@H]1CO[C@@H]2[C@H]1OC[C@H]2F [US9796704, Entry 90] | in the range around 525 nM | – | in the range around 525 nM | – |
| CCN1CCCC(c2nc(COc3cc4ncnc(Nc5ccc(Cl)c(Cl)c5)c4cc3OC)cs2)C1 (configuration not stated) [US9796704, Entry 254] | – | in the range around 525 nM | – | in the range around 10500 nM |
| CCN1CCCC1c1nc(COc2cc3ncnc(Nc4ccc(Cl)c(Cl)c4)c3cc2OC)no1 (configuration not stated) [US9796704, Entry 264] | – | in the range around 10500 nM | – | in the range around 525 nM |
| COc1cc2c(Nc3ccc(Br)c(Cl)c3F)ncnc2cc1OC[C@H]1C[C@H]2CNC[C@H]2C1 [US9796704, Entry 4] | – | – | < 50 nM | – |
| COc1cc2c(Nc3ccc(Cl)c(Cl)c3)ncnc2cc1OCc1csc(N(C)C)n1 [US9796704, Entry 240] | – | in the range around 525 nM | – | in the range around 525 nM |
| COc1cc2c(Nc3ccc(Cl)c(Cl)c3)ncnc2cc1OCc1csc([C@@H]2CSCN2)n1 [US9796704, Entry 248] | – | in the range around 525 nM | – | in the range around 525 nM |
| COc1cc2c(Nc3ccc(Cl)c(Cl)c3)ncnc2cc1OCc1csc(N2CCNCC2)n1 [US9796704, Entry 262] | – | in the range around 10500 nM | – | in the range around 10500 nM |
| COc1cc2c(Nc3ccc(Cl)c(Cl)c3)ncnc2cc1OCc1csc([C@@H]2CCCN2C)n1 [US9796704, Entry 266] | – | in the range around 10500 nM | – | in the range around 10500 nM |
| CCN1CCCCC1c1nc(COc2cc3ncnc(Nc4ccc(Cl)c(Cl)c4)c3cc2OC)cs1 (configuration not stated) [US9796704, Entry 253] | – | in the range around 10500 nM | – | in the range around 10500 nM |
| COc1cc2c(Nc3ccc(F)c(C(F)(F)F)c3)ncnc2cc1O[C@@H]1CO[C@@H]2[C@H]1OC[C@H]2F [US9796704, Entry 89] | – | – | in the range around 525 nM | – |
| COc1cc2c(Nc3ccc(Cl)c(Cl)c3)ncnc2cc1OCc1nc([C@@H]2CCCN2C)no1 [US9796704, Entry 265] | – | in the range around 10500 nM | – | in the range around 10500 nM |
| CCN1CCCOC(COc2cc3ncnc(Nc4ccc(Cl)c(Cl)c4)c3cc2OC)C1 (configuration not stated) [US9796704, Entry 241] | – | in the range around 525 nM | – | in the range around 525 nM |
| COc1ccc(OC)c(Nc2ncnc3cc(O[C@@H]4CO[C@@H]5[C@H]4OC[C@H]5F)c(OC)cc23)c1 [US9796704, Entry 134] | in the range around 525 nM | – | in the range around 525 nM | – |
| COc1cc2c(Nc3ccc(Cl)c(Cl)c3)ncnc2cc1OCc1csc(C2CCCNC2)n1 (configuration not stated) [US9796704, Entry 251] | – | in the range around 10500 nM | – | in the range around 10500 nM |
| COc1cc2c(Nc3ccc(Cl)c(Cl)c3)ncnc2cc1OCc1csc(C2CCCCN2)n1 (configuration not stated) [US9796704, Entry 249] | – | in the range around 10500 nM | – | in the range around 525 nM |
| COc1cc2c(Nc3ccc(Cl)c(Cl)c3)ncnc2cc1OC[C@@H]1CN2CCC[C@@H]2CO1 [US9796704, Entry 33] | in the range around 525 nM | in the range around 525 nM | – | – |
| CCOC(=O)N1C[C@H]2CC(COc3cc4ncnc(Nc5ccc(Br)c(Cl)c5F)c4cc3OC)C[C@H]2C1 (some centres not stated) [US9796704, Entry 5] | – | – | < 50 nM | in the range around 10500 nM |

Source: BindingDB's records for patent US9796704 (SYMPHONY EVOLUTION, INC., 2017)
